Experimental data from PubChem BioAssay AID2060902 (Molecular Pharmacology Branch, DTP, NCI, 2025).

Test system: 485368-065-R3-J5-PDC spheroids with HUVEC/MSC, viability
Assay: Anticancer human tumor 485368-065-R3-J5-PDC patient-derived pancreatic carcinoma cell line growth inhibition [RAS]
Details: for IC50: curve of first compound; for viability, T/C: stronger effect = lower value
Text: RAS pathway inhibitors in Combinations in Complex Spheroids
A high-throughput screen of multi-cell type tumor spheroids was designed to identify active combinations of RAS pathway inhibitors and targeted small molecules. Complex spheroids include a stromal component modeled by human endothelial cells (HUVEC) and fibroblasts modeled by human mesenchymal stem cells (MSCs). The concentration ranges selected for each drug and investigational agent were based upon clinically achievable concentrations if the clinical Cmax of the agent was known.
Compounds. The drugs and investigational agents: abemaciclib (NSC768073), cobimetinib (NSC768068), divarasib (GDC6063, NSC841802), docetaxel (NSC628503), GDC-1971 (RLY-1971, NSC841576), gemcitabine (NSC613327), inavolisib (NSC800729), ipatasertib (NSC767898), KB-0742 (NSC834161), MRTX-1133 (NSC836407), osimertinib (NSC779217), RMC-4630 (NSC839698), RMC-6236 (NSC851965), RMC-6291 (NSC852671), Ro-3306 (NSC812927), sapanisertib (NSC764658), SN-38 (NSC673596), staurosporine (NSC755774), SY5609 (NSC837396), and tovorafenib (DAY101, NSC766906), were obtained from the National Cancer Institute (NCI) Developmental Therapeutics Program Chemical Repository. The FDA-approved anticancer drug set is available from the NCI Developmental Therapeutics Program. […] The stock solutions were prepared in dimethyl sulfoxide (DMSO, Sigma-Aldrich, St. Louis, MO, cat. D2650) at 800-fold the tested concentration and stored at -70 degrees C prior to their use. All drugs and investigational agents were tested over a range starting from a high concentration at or near the clinical Cmax and decreasing in half-log increments. If the clinical Cmax for an agent had not been determined, the highest concentration tested was 10 microM.
Cell Culture. All cells were maintained in an incubator at 37 degrees C and 5% CO2 with 95% humidity. The PDC lines were cultured according to standard operating procedures established by the NCI PDMR. All PDCs were thawed and cultured in Matrigel-coated flasks prepared with a working solution of 1X Ham's F-12 nutrient mix, without supplementation (Invitrogen, Waltham, MA, cat. 11765054), 100 U/mL penicillin-streptomycin (Invitrogen, cat. 15140122), and 2.5% Matrigel (Corning Inc., Corning, NY, cat. 354248) for the first three passages. The 362531-283-R-J2-PDC and 782815-120-R-J1-PDC lines were cultured in 6C/Colon 1B media, which includes advanced DMEM/F-12 (Thermo Fisher Scientific, cat. 12634028), 10 mM HEPES (Thermo Fisher Scientific, cat. 15630080), 1X GlutaMAX supplement (Thermo Fisher Scientific, cat. 35050061), 0.1 mg/mL primocin (InvivoGen, San Diego, CA, cat. ant-pm-2), 10% defined fetal bovine serum, heat inactivated (HyClone Laboratories Inc., Logan, UT, cat. SH30070.03HI), 50% L-WRN conditioned media (ATCC, cat. CRL-3276), 1.25 mM N-Acetyl-L-cysteine (Sigma-Aldrich, cat. A9165), 10 mM nicotinamide (Sigma-Aldrich, cat. N0636), 1X B-27 supplement (Thermo Fisher Scientific, cat. 17504044), 1X N-2 supplement (Thermo Fisher Scientific, cat. 17502048), 50 ng/mL human EGF (Thermo Fisher Scientific, cat. PHG0311), and 10 microM Y-27632 dihydrochloride (Tocris Bioscience, cat. 1254). The K12877-001-R-J1-PDC line was cultured in 6I media, which includes all 6C/Colon 1B media plus 10 ng/mL human FGF-10 (PeproTech, cat. 100-26), 1 ng/mL human FGF-2 (PeproTech, cat. 100-18B), 1 µM prostaglandin E2 (Tocris Bioscience, cat. 2296), […] hydrocortisone (Sigma-Aldrich, cat. H4001), and […] bovine insulin (Sigma-Aldrich, cat. I6634). The K86415-001-R-J1-PDC line was cultured in 6D media, which includes all 6C/Colon 1B media components minus the L-WRN conditioned media. The 485176-168-R4-J1-PDC was cultured in PANC media, which includes all 6C/Colon 1B media plus 100 ng/mL human FGF-10 (PeproTech, cat. 100-26), 500 nM SB-431542 (Selleckchem, cat. S1067), and 10 nM gastrin (Tocris Bioscience, cat. 3006). […]

[1] = second compound 0.0316 µM, first compound 0.0316 µM
[2] = second compound 0.0316 µM, first compound 0.1 µM
[3] = second compound 0.0316 µM, first compound 0.316 µM
[4] = second compound 0.0316 µM, first compound 1 µM
[5] = second compound 0.0316 µM, first compound 3.16 µM
[6] = second compound 0.0316 µM, first compound 10 µM
[7] = second compound 0.1 µM, first compound 0.0316 µM
[8] = second compound 0.1 µM, first compound 0.1 µM
[9] = second compound 0.1 µM, first compound 0.316 µM
[10] = second compound 0.1 µM, first compound 1 µM
[11] = second compound 0.1 µM, first compound 3.16 µM
[12] = second compound 0.1 µM, first compound 10 µM
[13] = second compound 0.316 µM, first compound 0.0316 µM
[14] = second compound 0.316 µM, first compound 0.1 µM
[15] = second compound 0.316 µM, first compound 0.316 µM
[16] = second compound 0.316 µM, first compound 1 µM
[17] = second compound 0.316 µM, first compound 3.16 µM
[18] = second compound 0.316 µM, first compound 10 µM
[19] = second compound 1 µM, first compound 0.0316 µM
[20] = second compound 1 µM, first compound 0.1 µM
[21] = second compound 1 µM, first compound 0.316 µM
[22] = second compound 1 µM, first compound 1 µM
[23] = second compound 1 µM, first compound 3.16 µM
[24] = second compound 1 µM, first compound 10 µM
[25] = second compound 3.16 µM, first compound 0.0316 µM
[26] = second compound 3.16 µM, first compound 0.1 µM
[27] = second compound 3.16 µM, first compound 0.316 µM
[28] = second compound 3.16 µM, first compound 1 µM
[29] = second compound 3.16 µM, first compound 3.16 µM
[30] = second compound 3.16 µM, first compound 10 µM
[31] = second compound 10 µM, first compound 0.0316 µM
[32] = second compound 10 µM, first compound 0.1 µM
[33] = second compound 10 µM, first compound 0.316 µM
[34] = second compound 10 µM, first compound 1 µM
[35] = second compound 10 µM, first compound 3.16 µM
[36] = second compound 10 µM, first compound 10 µM
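Note: spheroids exposed to agents for seven days before readout.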

CC1(O)CCCC1n1c(=O)c(C(F)F)cc2cnc(NC3CCN(S(C)(=O)=O)CC3)nc21 (stereo unspecified) + C#Cc1c(F)ccc2cc(O)cc(-c3ncc4c(N5CC6CCC(C5)N6)nc(OCC56CCCN5CC(F)C6)nc4c3F)c12
IC50 (second compound 0.0316 µM): 0.562 µM | IC50 (second compound 0.1 µM): 0.314 µM | IC50 (second compound 0.316 µM): 0.504 µM | IC50 (second compound 1 µM): 0.344 µM | IC50 (second compound 3.16 µM): 0.131 µM | IC50 (second compound 10 µM): < 0.0316 µM | viability, T/C [1]: 94.1% | viability, T/C [2]: 62.8% | viability, T/C [3]: 53.2% | viability, T/C [4]: 46.5% | viability, T/C [5]: 39.4% | viability, T/C [6]: 11.2% | viability, T/C [7]: 103% | viability, T/C [8]: 66.4% | viability, T/C [9]: 44.9% | viability, T/C [10]: 40.8% | viability, T/C [11]: 39.9% | viability, T/C [12]: 10.9% | viability, T/C [13]: 84.6% | viability, T/C [14]: 71.1% | viability, T/C [15]: 46% | viability, T/C [16]: 39% | viability, T/C [17]: 47.1% | viability, T/C [18]: 11.9% | viability, T/C [19]: 90% | viability, T/C [20]: 63.4% | viability, T/C [21]: 41% | viability, T/C [22]: 44.2% | viability, T/C [23]: 40.4% | viability, T/C [24]: 13.3% | viability, T/C [25]: 65.8% | viability, T/C [26]: 46.8% | viability, T/C [27]: 38.8% | viability, T/C [28]: 34.4% | viability, T/C [29]: 35.8% | viability, T/C [30]: 9.18% | viability, T/C [31]: 36.9% | viability, T/C [32]: 32.6% | viability, T/C [33]: 28.6% | viability, T/C [34]: 30.9% | viability, T/C [35]: 31.9% | viability, T/C [36]: 6.8%

CCN1CCN(Cc2ccc(Nc3ncc(F)c(-c4cc(F)c5nc(C)n(C(C)C)c5c4)n3)nc2)CC1 + C#Cc1c(F)ccc2cc(O)cc(-c3ncc4c(N5CC6CCC(C5)N6)nc(OCC56CCCN5CC(F)C6)nc4c3F)c12
IC50 (second compound 0.0316 µM): 0.457 µM | IC50 (second compound 0.1 µM): 0.313 µM | IC50 (second compound 0.316 µM): 0.435 µM | IC50 (second compound 1 µM): 0.179 µM | IC50 (second compound 3.16 µM): 0.0471 µM | IC50 (second compound 10 µM): < 0.00316 µM | viability, T/C (second compound 0.0316 µM, first compound 0.00316 µM): 101% | viability, T/C (second compound 0.0316 µM, first compound 0.01 µM): 87% | viability, T/C [1]: 82.8% | viability, T/C [2]: 72.5% | viability, T/C [3]: 50.9% | viability, T/C [4]: 41.4% | viability, T/C (second compound 0.1 µM, first compound 0.00316 µM): 98.2% | viability, T/C (second compound 0.1 µM, first compound 0.01 µM): 96.7% | viability, T/C [7]: 76.1% | viability, T/C [8]: 65.9% | viability, T/C [9]: 50.1% | viability, T/C [10]: 39.8% | viability, T/C (second compound 0.316 µM, first compound 0.00316 µM): 94.4% | viability, T/C (second compound 0.316 µM, first compound 0.01 µM): 85.9% | viability, T/C [13]: 76.2% | viability, T/C [14]: 72.1% | viability, T/C [15]: 50.4% | viability, T/C [16]: 40.6% | viability, T/C (second compound 1 µM, first compound 0.00316 µM): 78.5% | viability, T/C (second compound 1 µM, first compound 0.01 µM): 83.8% | viability, T/C [19]: 75.1% | viability, T/C [20]: 59.4% | viability, T/C [21]: 40.1% | viability, T/C [22]: 40% | viability, T/C (second compound 3.16 µM, first compound 0.00316 µM): 69.4% | viability, T/C (second compound 3.16 µM, first compound 0.01 µM): 63.9% | viability, T/C [25]: 49.7% | viability, T/C [26]: 47.5% | viability, T/C [27]: 36.5% | viability, T/C [28]: 33.8% | viability, T/C (second compound 10 µM, first compound 0.00316 µM): 48.8% | viability, T/C (second compound 10 µM, first compound 0.01 µM): 37.2% | viability, T/C [31]: 31.4% | viability, T/C [32]: 30.3% | viability, T/C [33]: 29.9% | viability, T/C [34]: 28.3%

C[C@@H](NC(=O)c1ncnc(N)c1Cl)c1ncc(C(=O)Nc2cc(C(F)(F)F)c(Cl)cn2)s1 + C#Cc1c(F)ccc2cc(O)cc(-c3ncc4c(N5CC6CCC(C5)N6)nc(OCC56CCCN5CC(F)C6)nc4c3F)c12
IC50 (second compound 0.0316 µM): > 10 µM | IC50 (second compound 0.1 µM): > 10 µM | IC50 (second compound 0.316 µM): > 10 µM | IC50 (second compound 1 µM): > 10 µM | IC50 (second compound 3.16 µM): > 10 µM | IC50 (second compound 10 µM): 0.528 µM | viability, T/C [1]: 103% | viability, T/C [2]: 105% | viability, T/C [3]: 114% | viability, T/C [4]: 114% | viability, T/C [5]: 98% | viability, T/C [6]: 69.7% | viability, T/C [7]: 111% | viability, T/C [8]: 115% | viability, T/C [9]: 113% | viability, T/C [10]: 113% | viability, T/C [11]: 96.5% | viability, T/C [12]: 57.9% | viability, T/C [13]: 101% | viability, T/C [14]: 104% | viability, T/C [15]: 105% | viability, T/C [16]: 100% | viability, T/C [17]: 93.2% | viability, T/C [18]: 75.2% | viability, T/C [19]: 109% | viability, T/C [20]: 106% | viability, T/C [21]: 104% | viability, T/C [22]: 106% | viability, T/C [23]: 96% | viability, T/C [24]: 69.9% | viability, T/C [25]: 97.6% | viability, T/C [26]: 98.6% | viability, T/C [27]: 94.5% | viability, T/C [28]: 93.3% | viability, T/C [29]: 89.1% | viability, T/C [30]: 62% | viability, T/C [31]: 53.5% | viability, T/C [32]: 50.5% | viability, T/C [33]: 50.3% | viability, T/C [34]: 46% | viability, T/C [35]: 52.6% | viability, T/C [36]: 46.9%
